Legend:
[1] = target: T1, p75^NTR receptor (Homo sapiens, UniProt P08138); assay: Study of the dimerization of the p75NTR receptor independently of its ligand (binding of soluble p75NTR-alkaline phosphatase to SK-N-BE Bep 75 cells); conditions: 1 hour preincubation at 37° C., soluble p75NTR-alkaline phosphatase 10 nM
T1 construct: the clone Bep 75, stably expressing the complete form of the human p75^NTR receptor; expressed in transfected cells; host or cells: SK-N-BE Bep 75 (human neuroblastoma clone stably expressing the receptor); the soluble p75NTR-AP came from the supernatant of transiently transfected HEK293 cells
T1 sequence (P08138 29-427): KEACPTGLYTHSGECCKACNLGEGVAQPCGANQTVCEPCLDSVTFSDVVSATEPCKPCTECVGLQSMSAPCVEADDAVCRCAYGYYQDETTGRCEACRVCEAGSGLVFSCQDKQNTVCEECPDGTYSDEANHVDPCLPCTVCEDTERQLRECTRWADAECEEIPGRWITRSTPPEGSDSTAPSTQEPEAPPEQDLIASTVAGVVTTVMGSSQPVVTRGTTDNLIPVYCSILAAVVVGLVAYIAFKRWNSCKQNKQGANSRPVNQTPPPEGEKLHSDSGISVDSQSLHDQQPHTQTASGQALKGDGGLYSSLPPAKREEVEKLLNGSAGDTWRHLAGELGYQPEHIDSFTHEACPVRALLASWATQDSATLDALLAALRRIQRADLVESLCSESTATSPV
Description: The SK-N-BE parent strain (human neuroblastoma) and the clone Bep 75, stably expressing the complete form of the human p75^NTR receptor (SK-N-BE Bep 75) are conventionally cultured in an RPMI culture medium containing FCS (5%), sodium pyruvate (1 mM) and glutamine (4 mM). For the SK-N-BE Bep 75 cells, hygromycin (200 μl/20 ml of medium) is added as selection agent.
Study of the Dimerization of the p75^NTR Receptor Independently of its Ligand
The study of the dimerization of the p75^NTR receptor is performed on a cell suspension of the strain SK-N-BE Bep 75. The cells (2.5×10^4 cells/well) are placed in wells (96-well plate) for 24 hours, and then preincubated for 1 hour at 37° C. in the presence or absence of the compounds according to the invention. Supernatent, obtained from a culture of human cells of HEK293 renal origin expressing, after 48 hours of transfection, and secreting a soluble form of the p75^NTR receptor (extracellular part of the receptor) coupled to an alkaline phosphatase, the latter at a final concentration of 10 nM, is then added. The quantification of the specific binding of the soluble receptor to the receptor present on SK-N-BE Bep 75 cells is determined by measuring the enzyme activity of the alkaline phosphatase after incubation of the cells for 1 hour at 37° C. in the presence of the supernatant. After filtering and transferring the filters into 24-well plates, the alkaline phosphatase activity is determined by adding CDP-Star chemoluminescent substrate (ready-to-use, Roche).

IC50 [1]	melting point	SMILES
–	198 to 200 °C	C[C@@H]1CN(c2ccc3ccccc3n2)C[C@H](C)N1CC(=O)N1CC=C(c2c[nH]c3ccccc23)CC1 [Compound 110, 2-((2S,6R)-2,6-dimethyl-4-quinolin-2-yl-piperazin-1-yl)-1-[4-(1H-indol-3-yl)-3,6-dihydro-2H-pyridin-1-yl]ethanone]
–	89 to 90 °C	O=C(CN1CCN(c2ccc(Cl)c(Cl)n2)CC1)N1CC=C(c2cccc3ccsc23)CC1 [Compound 112, 1-(4-benzo[b]thiophen-7-yl-3,6-dihydro-2H-pyridin-1-yl)-2-[4-(5,6-dichloropyridin-2-yl)piperazin-1-yl]ethanone]
–	80 to 81 °C	O=C(CN1CCN(c2cccc(Br)n2)CC1)N1CC=C(c2cccc3ccsc23)CC1 [Compound 113, 1-(4-benzo[b]thiophen-7-yl-3,6-dihydro-2H-pyridin-1-yl)-2-[4-(6-bromopyridin-2-yl)piperazin-1-yl]ethanone]
–	189 to 190 °C	Cc1cc2cc(C3=CCN(C(=O)CN4CCN(c5ccc6ccccc6n5)CC4)CC3)ccc2s1 [Compound 114, 1-[4-(2-methylbenzo[b]thiophen-5-yl)-3,6-dihydro-2H-pyridin-1-yl]-2-(4-quinolin-2-ylpiperazin-1-yl)ethanone]
–	121 to 123 °C	Cc1cc2cc(C3=CCN(C(=O)CN4CCN(c5cccc(C(F)(F)F)n5)CC4)CC3)ccc2s1 [Compound 116, 1-[4-(2-methylbenzo[b]thiophen-5-yl)-3,6-dihydro-2H-pyridin-1-yl]-2-[4-(6-trifluoromethylpyridin-2-yl)piperazin-1-yl]ethanone]
–	90 to 93 °C	Cc1cc2cc(C3=CCN(C(=O)CN4CCN(c5ccnc6cc(Cl)ccc56)CC4)CC3)ccc2s1 [Compound 117, 2-[4-(7-chloroquinolin-4-yl)piperazin-1-yl]-1-[4-(2-methylbenzo[b]thiophen-5-yl)-3,6-dihydro-2H-pyridin-1-yl]ethanone]
–	145 to 148 °C	O=C(CN1CCN(c2ccc(C(F)(F)F)cn2)C(=O)C1)N1CC=C(c2nccc3sccc23)CC1 [Compound 118, 4-[2-oxo-2-(4-thieno[3,2-c]pyridin-4-yl-3,6-dihydro-2H-pyridin-1-yl)ethyl]-1-(5-trifluoromethylpyridin-2-yl)piperazin-2-one]

Further lines, the compound ahead of its results:

SMILES	IC50 [1]	melting point
CC1CN(c2cnccn2)CC(C)N1CC(=O)N1CC=C(c2cccc3ccsc23)CC1 (centres unmarked) [Compound 1, 1-(4-benzo[b]thiophen-7-yl-3,6-dihydro-2H-pyridin-1-yl)-2-(3,5-dimethyl-2,3,5,6-tetrahydro[1,2′]bipyrazinyl-4-yl)ethanone]	0.08 nM	–
C[C@@H]1CN(c2ncc(F)cn2)C[C@H](C)N1CC(=O)N1CC=C(c2cccc3ccoc23)CC1 [Compound 36, 1-(4-benzofuran-7-yl-3,6-dihydro-2H-pyridin-1-yl)-2-[(2S,6R)-4-(5-fluoropyrimidin-2-yl)-2,6-dimethylpiperazin-1-yl]ethanone]	20 nM	–
COC(=O)c1ccc(N2C[C@@H](C)N(CC(=O)N3CC=C(c4ccc5sc(C)cc5c4)CC3)[C@@H](C)C2)nc1 [Compound 61, Methyl 6-((3S,5R)-3,5-dimethyl-4-{2-[4-(2-methylbenzo[b]thiophen-5-yl)-3,6-dihydro-2H-pyridin-1-yl]-2-oxoethyl}piperazin-1-yl)nicotinate]	–	148 to 150 °C
C[C@@H]1CN(c2ccc(C(F)(F)F)cn2)C[C@H](C)N1CC(=O)N1CCC=C(c2cccc3ccoc23)C1 [Compound 63, 1-(5-benzofuran-7-yl-3,6-dihydro-2H-pyridin-1-yl)-2-[(2S,6R)-2,6-dimethyl-4-(5-trifluoromethylpyridin-2-yl)piperazin-1-yl]ethanone]	–	129 to 130 °C
CCCc1cc2cc(C3=CCN(C(=O)CN4[C@H](C)CN(c5ccc(C(F)(F)F)cn5)C[C@@H]4C)CC3)ccc2s1 [Compound 68, 2-[(2S,6R)-2,6-dimethyl-4-(5-trifluoromethylpyridin-2-yl)piperazin-1-yl]-1-[4-(2-propylbenzo[b]thiophen-5-yl)-3,6-dihydro-2H-pyridin-1-yl]ethanone]	–	157 to 159 °C
O=C(CN1CCN(c2ccc(C(F)(F)F)cn2)C(=O)C1)N1CC=C(c2cccc3ccoc23)C1 [Compound 83, 4-[2-(3-benzofuran-7-yl-2,5-dihydropyrrol-1-yl)-2-oxoethyl]-1-(5-trifluoromethylpyridin-2-yl)piperazin-2-one]	–	184 to 186 °C
C[C@@H]1CN(c2ncc(C(F)(F)F)cc2Cl)C[C@H](C)N1CC(=O)N1CC=C(c2cccc3ccoc23)CC1 [Compound 92, 1-(4-benzofuran-7-yl-3,6-dihydro-2H-pyridin-1-yl)-2-[(2S,6R)-4-(3-chloro-5-trifluoromethylpyridin-2-yl)-2,6-dimethylpiperazin-1-yl]ethanone]	–	130 to 131 °C
C[C@@H]1CN(c2ccc(C(F)(F)F)cn2)C[C@H](C)N1CC(=O)N1CC=C(c2c[nH]c3ccccc23)CC1 [Compound 97, 2-[(2S,6R)-2,6-dimethyl-4-(5-trifluoromethylpyridin-2-yl)piperazin-1-yl]-1-[4-(1H-indol-3-yl)-3,6-dihydro-2H-pyridin-1-yl]ethanone]	–	198 to 200 °C
O=C(CN1CCN(c2ccc3ccccc3n2)CC1)N1CC=C(c2c[nH]c3ccccc23)CC1 [Compound 98, 1-[4-(1H-indol-3-yl)-3,6-dihydro-2H-pyridin-1-yl]-2-(4-quinolin-2-ylpiperazin-1-yl)ethanone]	–	213 to 215 °C
C[C@@H]1CN(c2ncc(F)cn2)C[C@H](C)N1CC(=O)N1CC=C(c2c[nH]c3ccccc23)CC1 [Compound 100, 2-[(2S,6R)-4-(5-fluoropyrimidin-2-yl)-2,6-dimethylpiperazin-1-yl]-1-[4-(1H-indol-3-yl)-3,6-dihydro-2H-pyridin-1-yl]ethanone]	–	235 to 237 °C
C[C@@H]1CN(c2ccc(Cl)cn2)C[C@H](C)N1CC(=O)N1CC=C(c2cccc3ccsc23)CC1 [Compound 101, 1-(4-benzo[b]thiophen-7-yl-3,6-dihydro-2H-pyridin-1-yl)-2-[(2S,6R)-4-(5-chloropyridin-2-yl)-2,6-dimethylpiperazin-1-yl]ethanone]	–	157 to 158 °C
O=C(CN1CCN(c2ccc3ccccc3n2)CC1)N1CC=C(c2cccc3ccsc23)CC1 [Compound 105, 1-(4-benzo[b]thiophen-7-yl-3,6-dihydro-2H-pyridin-1-yl)-2-(4-quinolin-2-ylpiperazin-1-yl)ethanone]	–	177 to 178 °C
O=C(CN1CCN(c2ccnc3cc(Cl)ccc23)CC1)N1CC=C(c2cccc3ccsc23)CC1 [Compound 106, 1-(4-benzo[b]thiophen-7-yl-3,6-dihydro-2H-pyridin-1-yl)-2-[4-(7-chloroquinolin-4-yl)piperazin-1-yl]ethanone]	–	90 to 91 °C
O=C(CN1CCN(c2cccc(Cl)n2)CC1)N1CC=C(c2cccc3ccsc23)CC1 [Compound 107, 1-(4-benzo[b]thiophen-7-yl-3,6-dihydro-2H-pyridin-1-yl)-2-[4-(6-chloropyridin-2-yl)piperazin-1-yl]ethanone]	–	92 to 93 °C
O=C(CN1CCN(c2cccc(Cl)n2)CC1)N1CC=C(c2c[nH]c3ccccc23)CC1 [Compound 108, 2-[4-(6-chloropyridin-2-yl)piperazin-1-yl]-1-[4-(1H-indol-3-yl)-3,6-dihydro-2H-pyridin-1-yl]ethanone]	–	202 to 204 °C
O=C(CN1CCN(c2ccc(C(F)(F)F)cn2)CC1)N1CC=C(c2c[nH]c3ccccc23)CC1 [Compound 109, 1-[4-(1H-indol-3-yl)-3,6-dihydro-2H-pyridin-1-yl]-2-[4-(5-trifluoromethylpyridin-2-yl)piperazin-1-yl]ethanone]	–	220 to 222 °C

From US8518947B2, “(Heterocycle/tetrahydropyridine)-(piperazinyl)-1-alcanone and (heterocycle/dihydropyrrolidine)-(piperazinyl)-1-alcanone derivatives, and use thereof as p75 inhibitors” (Sanofi, priority 2009, dated 2013)
